Literature values in publication PMC6264278, “Corydaline Inhibits Multiple Cytochrome P450 and UDP-Glucuronosyltransferase Enzyme Activities in Human Liver Microsomes” (Molecules, 2011).

Key:
CYP2C9 = details: read-out: IC50, CYP2C9 inhibition; cited from earlier work
UGT1A9 = system: UGT1A9; design: method as in PMID 21245288; details: read-out: Ki, UGT1A9 inhibition; cited from earlier work
CYP2D6 = system: CYP2D6; design: method as in PMID 21425377, PMID 14570772; details: read-out: IC50, inhibitory effect on CYP2D6 activity; cited from earlier work

Structure (SMILES): O=C(O)c1cccnc1Nc1cccc(C(F)(F)F)c1 [niflumic acid]
- Ki (UGT1A9): 0.1 to 0.4 µM

Structure (SMILES): COc1cc2c(cc1OC)-c1cc3ccc(OC)c(OC)c3c[n+]1CC2 [palmatine]
- IC50 (CYP2D6): 92.6 µM

Structure (SMILES): COc1ccc2cc3[n+](cc2c1OC)CCc1cc2c(cc1-3)OCO2 [berberine]
- IC50 (CYP2D6): 49.4 µM
